The values that follow come from US10093627B2, “Tetrahydroquinoline derivatives and their use as Epac inhibitors” (Institut National de la Sante et de la Recherche Medicale …, priority 2012, dated 2018).

Test [1] deals with Epac1-induced H-Ras activation in rat neonatal cardiac myocytes. The test is described as follows: Epac1-induced H-Ras activation, H-Ras-GTP pull-down in rat neonatal cardiac myocytes. The test is classed as cell-based. Particulars: rat neonatal cardiac myocytes transfected with Epac1; CE3F4 30 min; Sp-007 10 μM, 10 min; FIG. 3B. The protocol: The effects of CE3F4 to prevent Epac1-induced H-Ras activation was determined by extraction of GTP-loaded H-Ras from cell lysates with the immobilized Ras-binding domain of Raf1.
HEK293 cells (FIG. 3A) or rat neonatal cardiac myocytes (FIG. 3B) were transfected with Epac1. 24 h after transfection, cells were preincubated or not with CE3F4 for 30 min and were then treated or not with Sp-007 (10 μM) for 10 min. In FIG. 3C, HEK293 cells overexpressing β1-AR and transfected with Epac1 were pretreated or not with 20 μM of CE3F4 for 30 min and stimulated or not with Iso for 10 min. Amounts of H-Ras-GTP were determined by pull-down assays. The bar graph represents the mean±S.E.M. of 5 (FIG. 3A) or 2 (FIG. 3B, 3C) independent experiments. Results are expressed as the percentage of unstimulated control cells.
Cardiac myocytes were isolated as previously described by Wollert and colleagues (1996). HEK293 cells stably expressing the β1-adrenergic receptor (β1-AR) was a gift of Dr. Shenoy (Duke University). HEK293 cells were maintained in MEM with FBS (Foetal Bovine Serum; 10%) and penicillin-streptomycin (1%). All media, sera and antibiotics used in cell culture were purchased from Invitrogen (Cergy Pontoise, France). […]

In test [2] the target is T1, Epac1 (Homo sapiens, UniProt O95398).
T1 construct: Recombinant human Epac1 (residues 149-881), deleted of its Dishevelled, Egl-10, and Pleckstrin (DEP) domain; made in house
T1 sequence (O95398 149-881 isoform O95398-3): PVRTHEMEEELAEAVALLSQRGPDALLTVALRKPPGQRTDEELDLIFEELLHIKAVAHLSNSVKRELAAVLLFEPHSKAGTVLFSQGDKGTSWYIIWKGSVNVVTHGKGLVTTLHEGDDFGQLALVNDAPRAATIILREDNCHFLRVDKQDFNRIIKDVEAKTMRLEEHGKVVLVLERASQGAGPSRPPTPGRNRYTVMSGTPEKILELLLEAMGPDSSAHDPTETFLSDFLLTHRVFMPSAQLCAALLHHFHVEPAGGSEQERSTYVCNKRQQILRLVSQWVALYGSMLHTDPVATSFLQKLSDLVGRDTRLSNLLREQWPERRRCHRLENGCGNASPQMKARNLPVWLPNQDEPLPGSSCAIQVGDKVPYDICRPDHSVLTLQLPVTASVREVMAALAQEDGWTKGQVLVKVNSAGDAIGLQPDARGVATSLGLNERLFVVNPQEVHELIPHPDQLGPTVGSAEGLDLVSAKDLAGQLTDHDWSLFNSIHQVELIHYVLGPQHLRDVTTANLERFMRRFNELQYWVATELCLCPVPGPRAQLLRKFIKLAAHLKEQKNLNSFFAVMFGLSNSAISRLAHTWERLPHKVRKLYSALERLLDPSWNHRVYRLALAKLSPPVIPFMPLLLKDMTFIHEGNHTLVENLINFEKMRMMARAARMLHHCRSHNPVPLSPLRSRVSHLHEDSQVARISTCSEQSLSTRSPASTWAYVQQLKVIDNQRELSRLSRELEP
The test is described as follows: In vitro GEF activity (initial velocity of GDP exchange on Rap1A) of Epac1. The test is classed as biochemical. On the procedure:
Protein NCBI Reference Sequences for human Epac1 and Epac2 are NP_006096 and NP_008954, respectively. Recombinant human Epac1 (residues 149-881), deleted of its Dishevelled, Egl-10, and Pleckstrin (DEP) domain, and human Rap1A were produced with GST as a fusion tag (D. Courilleau et al., Identification of a tetrahydroquinoline analog as a pharmacological inhibitor of the cAMP-binding protein Epac, J. Biol. Chem. 287 (2012) 44192-44202).
In vitro GDP exchange catalyzed by Epac was measured using purified recombinant Epac isoforms and Rap1A loaded with Bodipy-GDP, as described in D. Courilleau, et al (above mentioned). The GEF activity of Epac proteins was initiated by injection of the agonist. Stock solutions of CE3F4 and its analogs (12 mM in 100% DMSO) were kept at −20° C. and were diluted in assay buffer (0.67% final DMSO concentration) just before use for GDP exchange assays. The release of Bodipy-GDP was measured in real time as the decay of fluorescence. A single exponential was fit to the time-course data using the Graphpad Prism program. The initial velocity (Vi) of GDP exchange on Rap1 was calculated as described in D. Courilleau et al.).
Data are expressed as mean±S.D. Differences in quantitative variables were examined by unpaired one- or two-tailed Student's t test. EC50 and IC50 values were computed according to a four-parameters dose-response model and compared on the basis of the extra sum-of square F test, using Graphpad Prism. Two-tailed Wilcoxon matched-pair signed rank tests were performed using GraphPad Prism.

The structures appear in SMILES notation.

Take `CC1CCc2c(cc(Br)c(F)c2Br)N1C=O` (racemic) [CE3F4]: the “Amount of Ras-GTP induced by Sp-007” value in test [1] was “decreased”. Besides, in test [2] (50 μM racemic CE3F4, agonist 50 μM 007 or 300 μM cAMP, FIG. 6A), the “Inhibition of GEF activity of Epac1 compared with Epac2(AB) or Epac2(B)” value was “much more inhibited”. In test [2] (Epac1 GEF activity toward Rap1, Epac1 activated by 20 μM 007, mean of n=4 to 9 independent determinations), the concentration for a half-maximal effect (EC50) (in general, the concentration giving half of the maximal effect) came out at 10.7 µM. Moreover, in test [2] (Epac1 activated by 300 μM cAMP), it took 11 µM to reach half-maximal inhibition (IC50). The “Antagonism of cAMP-activated Epac1 GEF activity” value in test [2] (compound 30 μM, 300 μM cAMP, FIG. 6C) is on record as “stronger antagonist”.
